Test results taken from paper PMC7778606, “Development of the phenylpyrazolo[3,4-d]pyrimidine-based, insulin-like growth factor receptor/Src/AXL-targeting small molecule kinase inhibitor” (Theranostics, 2021).

Key:
Assay in all cases: KINOMEscan competition binding assay
[1] = target: T1, CHEK1 (Homo sapiens, UniProt O14757); conditions: LL6 at 10 μM; read-out: Percent Control
T1 construct: purchased DiscoverX KINOMEscan
Method: (§1) Kd values were obtained by KINOMEscan from DiscoverX (San Diego, CA, USA). To briefly summarize, Kd was measured by a competition binding assay that quantitatively measures the ability of a compound to compete with an immobilized ligand. […] Dose response curves of 11 points are obtained for Kd values, which are measured in duplicate. See more details in the cited references [39]-[42] and see also at www.discoverx.com.

[2] = target: T2, TGFBR1 (Homo sapiens, UniProt P36897); conditions: LL6 at 10 μM; read-out: Percent Control
T2 construct: purchased DiscoverX KINOMEscan
Method: as §1

[3] = target: T3, DCAMKL1 (Homo sapiens, UniProt O15075); conditions: LL6 at 10 μM; read-out: Percent Control
T3 construct: purchased DiscoverX KINOMEscan
Method: as §1

[4] = target: T4, ALK (Homo sapiens, UniProt Q9UM73); conditions: LL6 at 10 μM; read-out: Percent Control
T4 construct: purchased DiscoverX KINOMEscan
Method: as §1

[5] = target: T5, RIOK2 (Homo sapiens, UniProt Q9BVS4); conditions: LL6 at 10 μM; read-out: Percent Control
T5 construct: purchased DiscoverX KINOMEscan
Method: as §1

[6] = target: T6, RAF1 (Homo sapiens, UniProt P04049); conditions: LL6 at 10 μM; read-out: Percent Control
T6 construct: purchased DiscoverX KINOMEscan
Method: as §1

[7] = target: T7, CSNK1D (Homo sapiens, UniProt P48730); conditions: LL6 at 10 μM; read-out: Percent Control
T7 construct: purchased DiscoverX KINOMEscan
Method: as §1

[8] = target: T8, BRAF(V600E) (Homo sapiens, UniProt P15056, V600E); conditions: LL6 at 10 μM; read-out: Percent Control
T8 construct: purchased DiscoverX KINOMEscan
Method: as §1

[9] = target: T9, PIK3CA (Homo sapiens, UniProt P42336); conditions: LL6 at 10 μM; read-out: Percent Control
T9 construct: purchased DiscoverX KINOMEscan
Method: as §1

[10] = target: T10, MEK2 (Homo sapiens, UniProt P36507); conditions: LL6 at 10 μM; read-out: Percent Control
T10 construct: purchased DiscoverX KINOMEscan
Method: as §1

[11] = target: T11, GSK3B (Homo sapiens, UniProt P49841); conditions: LL6 at 10 μM; read-out: Percent Control
T11 construct: purchased DiscoverX KINOMEscan
Method: as §1

[12] = target: T12, p38-alpha (Homo sapiens, UniProt Q16539); conditions: LL6 at 10 μM; read-out: Percent Control
T12 construct: purchased DiscoverX KINOMEscan
Method: as §1

[13] = target: T13, SNARK (Homo sapiens, UniProt Q9H093); conditions: LL6 at 10 μM; read-out: Percent Control
T13 construct: purchased DiscoverX KINOMEscan
Method: as §1

[14] = target: T14, FAK (Homo sapiens, UniProt Q05397); conditions: LL6 at 10 μM; read-out: Percent Control
T14 construct: purchased DiscoverX KINOMEscan
Method: as §1

[15] = target: T15, ZAP70 (Homo sapiens, UniProt P43403); conditions: LL6 at 10 μM; read-out: Percent Control
T15 construct: purchased DiscoverX KINOMEscan
Method: as §1

[16] = target: T16, YANK3 (Homo sapiens, UniProt Q86UX6); conditions: LL6 at 10 μM; read-out: Percent Control
T16 construct: purchased DiscoverX KINOMEscan
Method: as §1

[17] = target: T17, IKK-beta (Homo sapiens, UniProt O14920); conditions: LL6 at 10 μM; read-out: Percent Control
T17 construct: purchased DiscoverX KINOMEscan
Method: as §1

[18] = target: T18, MET (Homo sapiens, UniProt P08581); conditions: LL6 at 10 μM; read-out: Percent Control
T18 construct: purchased DiscoverX KINOMEscan
Method: as §1

[19] = target: T19, FLT3 (Homo sapiens, UniProt P36888); conditions: LL6 at 10 μM; read-out: Percent Control
T19 construct: purchased DiscoverX KINOMEscan
Method: as §1

[20] = target: T20, CDK3 (Homo sapiens, UniProt Q00526); conditions: LL6 at 10 μM; read-out: Percent Control
T20 construct: purchased DiscoverX KINOMEscan
Method: as §1

[21] = target: T21, MLK1 (Homo sapiens, UniProt P80192); conditions: LL6 at 10 μM; read-out: Percent Control
T21 construct: purchased DiscoverX KINOMEscan
Method: as §1

[22] = target: T22, MKNK2 (Homo sapiens, UniProt Q9HBH9); conditions: LL6 at 10 μM; read-out: Percent Control
T22 construct: purchased DiscoverX KINOMEscan
Method: as §1

[23] = target: T23, EPHA2 (Homo sapiens, UniProt P29317); conditions: LL6 at 10 μM; read-out: Percent Control
T23 construct: purchased DiscoverX KINOMEscan
Method: as §1

[24] = target: T24, PKAC-alpha (Homo sapiens, UniProt P17612); conditions: LL6 at 10 μM; read-out: Percent Control
T24 construct: purchased DiscoverX KINOMEscan
Method: as §1

[25] = target: T25, JNK3 (Homo sapiens, UniProt P53779); conditions: LL6 at 10 μM; read-out: Percent Control
T25 construct: purchased DiscoverX KINOMEscan
Method: as §1

[26] = target: T26, PIK3C2B (Homo sapiens, UniProt O00750); conditions: LL6 at 10 μM; read-out: Percent Control
T26 construct: purchased DiscoverX KINOMEscan
Method: as §1

[27] = target: T27, MARK3 (Homo sapiens, UniProt P27448); conditions: LL6 at 10 μM; read-out: Percent Control
T27 construct: purchased DiscoverX KINOMEscan
Method: as §1

[28] = target: T28, IR (Homo sapiens, UniProt P06213)
T28 construct: purchased DiscoverX (KINOMEscan service)
Method: as §1

[29] = target: T29, PDPK1 (Homo sapiens, UniProt O15530); conditions: LL6 at 10 μM; read-out: Percent Control
T29 construct: purchased DiscoverX KINOMEscan
Method: as §1

[30] = target: T30, MEK1 (Homo sapiens, UniProt Q02750); conditions: LL6 at 10 μM; read-out: Percent Control
T30 construct: purchased DiscoverX KINOMEscan
Method: as §1

[31] = target: T31, KIT(V559D,T670I) (Homo sapiens, UniProt P10721, T670I/V559D); conditions: LL6 at 10 μM; read-out: Percent Control
T31 construct: purchased DiscoverX KINOMEscan
Method: as §1

[32] = target: T32, EGFR(L858R) (Homo sapiens, UniProt P00533, L858R); conditions: LL6 at 10 μM; read-out: Percent Control
T32 construct: purchased DiscoverX KINOMEscan
Method: as §1

[33] = target: T33, PAK2 (Homo sapiens, UniProt Q13177); conditions: LL6 at 10 μM; read-out: Percent Control
T33 construct: purchased DiscoverX KINOMEscan
Method: as §1

[34] = target: T34, CDK9 (Homo sapiens, UniProt P50750); conditions: LL6 at 10 μM; read-out: Percent Control
T34 construct: purchased DiscoverX KINOMEscan
Method: as §1

T28 sequence (P06213 28-1382): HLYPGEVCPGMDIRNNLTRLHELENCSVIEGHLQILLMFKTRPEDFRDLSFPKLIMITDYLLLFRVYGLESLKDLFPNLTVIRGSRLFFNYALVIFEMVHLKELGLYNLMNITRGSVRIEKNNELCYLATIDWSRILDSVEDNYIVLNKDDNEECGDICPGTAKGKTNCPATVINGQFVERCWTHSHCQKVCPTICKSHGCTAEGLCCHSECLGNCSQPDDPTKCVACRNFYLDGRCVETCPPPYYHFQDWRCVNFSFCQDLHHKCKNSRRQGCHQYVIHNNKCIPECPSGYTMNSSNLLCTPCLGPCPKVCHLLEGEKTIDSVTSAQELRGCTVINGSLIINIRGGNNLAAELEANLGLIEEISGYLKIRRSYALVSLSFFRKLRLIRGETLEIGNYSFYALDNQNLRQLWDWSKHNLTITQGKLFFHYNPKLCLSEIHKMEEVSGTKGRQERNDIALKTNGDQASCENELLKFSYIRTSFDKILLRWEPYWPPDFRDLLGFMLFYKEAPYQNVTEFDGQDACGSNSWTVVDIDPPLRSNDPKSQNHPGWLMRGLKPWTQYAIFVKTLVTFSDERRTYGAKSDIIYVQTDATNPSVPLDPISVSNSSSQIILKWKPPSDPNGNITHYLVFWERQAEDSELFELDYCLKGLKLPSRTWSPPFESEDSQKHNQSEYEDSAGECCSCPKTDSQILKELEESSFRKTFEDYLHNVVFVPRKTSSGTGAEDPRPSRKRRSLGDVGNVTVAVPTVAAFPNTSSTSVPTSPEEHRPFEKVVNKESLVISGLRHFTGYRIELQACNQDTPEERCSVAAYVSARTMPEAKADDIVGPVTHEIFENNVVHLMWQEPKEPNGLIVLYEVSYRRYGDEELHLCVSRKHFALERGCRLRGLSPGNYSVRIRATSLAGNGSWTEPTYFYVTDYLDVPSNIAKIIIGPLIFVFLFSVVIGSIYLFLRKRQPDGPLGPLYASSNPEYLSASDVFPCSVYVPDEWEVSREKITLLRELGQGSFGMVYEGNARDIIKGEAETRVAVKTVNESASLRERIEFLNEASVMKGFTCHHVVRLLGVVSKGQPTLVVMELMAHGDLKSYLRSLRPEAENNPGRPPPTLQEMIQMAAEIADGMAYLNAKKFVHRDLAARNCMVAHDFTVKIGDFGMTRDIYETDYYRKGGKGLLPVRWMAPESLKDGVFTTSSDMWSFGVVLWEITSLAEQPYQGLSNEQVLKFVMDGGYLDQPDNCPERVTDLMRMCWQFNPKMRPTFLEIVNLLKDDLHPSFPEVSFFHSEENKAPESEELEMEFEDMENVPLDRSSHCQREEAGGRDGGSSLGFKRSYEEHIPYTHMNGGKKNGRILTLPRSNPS
T26 sequence (O00750 whole entry): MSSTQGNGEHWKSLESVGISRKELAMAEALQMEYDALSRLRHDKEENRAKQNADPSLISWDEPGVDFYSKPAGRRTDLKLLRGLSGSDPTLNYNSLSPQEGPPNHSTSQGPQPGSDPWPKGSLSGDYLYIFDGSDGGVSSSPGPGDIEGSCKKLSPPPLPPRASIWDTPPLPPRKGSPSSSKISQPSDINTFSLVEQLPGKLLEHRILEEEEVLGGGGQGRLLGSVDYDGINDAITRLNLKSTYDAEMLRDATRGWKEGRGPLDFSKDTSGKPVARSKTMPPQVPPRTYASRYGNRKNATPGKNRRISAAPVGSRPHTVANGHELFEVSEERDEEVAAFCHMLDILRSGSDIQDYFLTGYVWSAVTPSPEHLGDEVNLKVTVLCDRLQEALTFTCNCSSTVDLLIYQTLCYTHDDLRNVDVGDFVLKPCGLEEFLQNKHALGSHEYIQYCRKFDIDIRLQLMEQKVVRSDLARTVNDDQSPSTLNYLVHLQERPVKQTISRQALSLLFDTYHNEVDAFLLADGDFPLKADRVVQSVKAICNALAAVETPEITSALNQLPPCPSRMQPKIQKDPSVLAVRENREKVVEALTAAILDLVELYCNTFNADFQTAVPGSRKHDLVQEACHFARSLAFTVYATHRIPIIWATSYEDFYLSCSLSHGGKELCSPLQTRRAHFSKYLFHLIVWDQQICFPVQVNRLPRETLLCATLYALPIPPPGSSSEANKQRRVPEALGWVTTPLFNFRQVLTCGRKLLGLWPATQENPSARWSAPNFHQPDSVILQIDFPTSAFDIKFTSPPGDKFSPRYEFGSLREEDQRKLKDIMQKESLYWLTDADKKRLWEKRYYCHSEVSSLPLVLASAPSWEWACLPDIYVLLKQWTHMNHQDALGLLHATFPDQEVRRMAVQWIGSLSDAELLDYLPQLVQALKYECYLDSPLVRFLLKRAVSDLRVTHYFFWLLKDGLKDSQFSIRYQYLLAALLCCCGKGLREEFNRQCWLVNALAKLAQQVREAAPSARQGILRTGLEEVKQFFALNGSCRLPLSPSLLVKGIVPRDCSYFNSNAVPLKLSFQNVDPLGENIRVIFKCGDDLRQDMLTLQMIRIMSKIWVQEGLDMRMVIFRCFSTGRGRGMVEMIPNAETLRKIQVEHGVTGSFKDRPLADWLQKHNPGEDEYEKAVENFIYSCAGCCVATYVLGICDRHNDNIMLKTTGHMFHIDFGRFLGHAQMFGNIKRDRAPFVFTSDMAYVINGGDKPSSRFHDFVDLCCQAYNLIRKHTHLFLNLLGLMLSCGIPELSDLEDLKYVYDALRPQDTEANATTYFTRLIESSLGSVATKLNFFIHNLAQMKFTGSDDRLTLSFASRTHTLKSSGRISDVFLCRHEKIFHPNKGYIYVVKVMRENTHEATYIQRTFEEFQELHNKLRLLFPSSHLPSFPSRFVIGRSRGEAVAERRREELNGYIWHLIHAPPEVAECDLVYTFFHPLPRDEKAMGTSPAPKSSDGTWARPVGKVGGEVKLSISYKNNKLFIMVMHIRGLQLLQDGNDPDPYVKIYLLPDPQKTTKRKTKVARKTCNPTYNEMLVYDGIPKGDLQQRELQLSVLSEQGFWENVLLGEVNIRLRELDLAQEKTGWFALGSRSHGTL
T4 sequence (Q9UM73 19-1620): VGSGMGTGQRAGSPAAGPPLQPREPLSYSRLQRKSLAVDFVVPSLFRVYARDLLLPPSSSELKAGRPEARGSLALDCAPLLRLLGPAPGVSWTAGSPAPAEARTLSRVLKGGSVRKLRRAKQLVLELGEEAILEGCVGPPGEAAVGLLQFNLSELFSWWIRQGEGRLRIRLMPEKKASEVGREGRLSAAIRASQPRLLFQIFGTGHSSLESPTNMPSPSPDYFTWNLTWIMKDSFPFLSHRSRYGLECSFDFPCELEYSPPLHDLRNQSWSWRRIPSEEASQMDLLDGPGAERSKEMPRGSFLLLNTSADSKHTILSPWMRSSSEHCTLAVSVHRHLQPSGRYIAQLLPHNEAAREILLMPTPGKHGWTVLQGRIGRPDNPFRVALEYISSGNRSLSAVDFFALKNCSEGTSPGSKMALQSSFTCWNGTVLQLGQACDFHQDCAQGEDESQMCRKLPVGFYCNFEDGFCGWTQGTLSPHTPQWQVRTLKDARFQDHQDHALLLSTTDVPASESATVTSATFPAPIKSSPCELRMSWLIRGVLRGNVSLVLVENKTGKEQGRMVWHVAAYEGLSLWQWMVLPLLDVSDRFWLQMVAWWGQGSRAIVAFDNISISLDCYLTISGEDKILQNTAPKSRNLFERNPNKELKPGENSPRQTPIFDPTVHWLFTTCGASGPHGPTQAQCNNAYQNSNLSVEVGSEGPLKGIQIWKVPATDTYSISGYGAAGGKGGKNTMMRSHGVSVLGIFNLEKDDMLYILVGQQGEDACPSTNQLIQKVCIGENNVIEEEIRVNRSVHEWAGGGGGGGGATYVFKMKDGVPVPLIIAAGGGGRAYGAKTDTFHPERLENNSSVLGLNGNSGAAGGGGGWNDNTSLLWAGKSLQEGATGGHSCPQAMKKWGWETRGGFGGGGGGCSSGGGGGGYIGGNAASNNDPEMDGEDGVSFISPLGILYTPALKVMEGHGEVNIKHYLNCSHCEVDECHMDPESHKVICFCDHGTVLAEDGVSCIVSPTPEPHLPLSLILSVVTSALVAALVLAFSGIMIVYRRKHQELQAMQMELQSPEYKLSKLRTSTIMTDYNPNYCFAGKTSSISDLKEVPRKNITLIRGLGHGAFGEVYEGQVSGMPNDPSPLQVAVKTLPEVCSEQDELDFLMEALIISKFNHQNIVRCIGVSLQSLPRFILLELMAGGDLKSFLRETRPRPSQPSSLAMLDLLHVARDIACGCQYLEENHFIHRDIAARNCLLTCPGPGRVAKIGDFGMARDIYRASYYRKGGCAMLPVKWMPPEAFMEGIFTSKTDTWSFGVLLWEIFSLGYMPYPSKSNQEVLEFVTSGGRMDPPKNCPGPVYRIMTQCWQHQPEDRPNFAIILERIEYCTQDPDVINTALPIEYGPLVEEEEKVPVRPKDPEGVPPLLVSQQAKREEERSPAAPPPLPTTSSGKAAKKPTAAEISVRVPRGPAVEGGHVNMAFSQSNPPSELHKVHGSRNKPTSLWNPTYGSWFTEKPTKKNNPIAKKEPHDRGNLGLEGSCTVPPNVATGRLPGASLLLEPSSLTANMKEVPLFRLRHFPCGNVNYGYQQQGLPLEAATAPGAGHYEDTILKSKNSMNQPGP
T10 sequence (P36507 whole entry): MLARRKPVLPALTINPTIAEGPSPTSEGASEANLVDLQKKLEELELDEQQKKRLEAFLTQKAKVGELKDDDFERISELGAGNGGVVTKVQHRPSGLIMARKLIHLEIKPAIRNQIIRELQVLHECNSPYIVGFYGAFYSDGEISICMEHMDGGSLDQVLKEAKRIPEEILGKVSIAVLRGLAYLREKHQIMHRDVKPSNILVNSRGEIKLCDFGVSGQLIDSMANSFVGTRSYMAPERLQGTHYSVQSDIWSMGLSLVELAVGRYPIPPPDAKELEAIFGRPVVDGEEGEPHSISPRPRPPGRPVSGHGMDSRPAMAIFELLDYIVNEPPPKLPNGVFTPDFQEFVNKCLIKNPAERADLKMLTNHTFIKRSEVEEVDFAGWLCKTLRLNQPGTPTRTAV

- remaining binding at 10 µM [1]: 100%
- remaining binding at 10 µM [2]: 46%
- remaining binding at 10 µM [3]: 100%
- remaining binding at 10 µM [4]: 100%
- remaining binding at 10 µM [5]: 100%
- remaining binding at 10 µM [6]: 82%
- remaining binding at 10 µM [7]: 14%
- remaining binding at 10 µM [8]: 22%
- remaining binding at 10 µM [9]: 100%
- remaining binding at 10 µM [10]: 95%
- remaining binding at 10 µM [11]: 67%
- remaining binding at 10 µM [12]: 100%
- remaining binding at 10 µM [13]: 100%
- remaining binding at 10 µM [14]: 73%
- remaining binding at 10 µM [15]: 100%
- remaining binding at 10 µM [16]: 100%
- remaining binding at 10 µM [17]: 100%
- remaining binding at 10 µM [18]: 75%
- remaining binding at 10 µM [19]: 43%
- remaining binding at 10 µM [20]: 97%
- remaining binding at 10 µM [21]: 75%
- remaining binding at 10 µM [22]: 89%
- remaining binding at 10 µM [23]: 100%
- remaining binding at 10 µM [24]: 36%
- remaining binding at 10 µM [25]: 42%
- remaining binding at 10 µM [26]: 100%
- remaining binding at 10 µM [27]: 100%
- Kd ([28]; IR, 11-point dose response, duplicate): not accurately measurable
- inhibition at 10 µM ([28]; IR, LL6 at 10 µM): > 65%
- remaining binding at 10 µM ([28]; LL6 at 10 μM, read-out: Percent Control): 35%
- remaining binding at 10 µM [29]: 87%
- remaining binding at 10 µM [30]: 65%
- remaining binding at 10 µM [31]: 80%
- remaining binding at 10 µM [32]: 88%
- remaining binding at 10 µM [33]: 100%
- remaining binding at 10 µM [34]: 100%
Compound: Nc1ncnc2c1c(-c1ccc(Cl)cc1)nn2CCn1cc(COc2ccc(Nc3nccc(Nc4cnc5ccccc5c4)n3)cc2)nn1 [LL6]
